Laboratory results: patent US10512626B2, “Compositions for use in treating glioblastoma” (PELOTON THERAPEUTICS, INC., priority 2015, dated 2019)
pEC50, pIC50: −log10 of the molar value.

Target: T1, HIF-2α HIS TAG-PASB Domain (Homo sapiens, UniProt Q99814)
T1 construct: 100 nM HIF-2α HIS TAG-PASB Domain
Test: HIF-2α Scintillation Proximity Assay (SPA)
Format: binding
Conditions: displacement of tritiated probe Compound 183
Protocol: The total assay volume was about 100 μL in the following configuration: 2 μL compound in 100% DMSO, 88 μL buffer with protein and probe and 10 μL of SPA beads. […] The percent inhibition was determined and IC50 values were calculated using the Dotmatics system based on the following equation: % inhibition=[(high control−sample)/(high control−low control)]×100.

T1 sequence (Q99814 240-350 limits assumed): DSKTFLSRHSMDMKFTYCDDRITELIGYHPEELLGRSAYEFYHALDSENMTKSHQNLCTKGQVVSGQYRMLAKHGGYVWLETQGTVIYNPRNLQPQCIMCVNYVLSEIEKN

| Compound | pIC50 |
| --- | --- |
| CS(=O)(=O)c1ccc(Nc2cc(F)cc(C#N)c2)c2c1[C@H](O)C(F)(F)C2 [Compound 502] | < 6.00 |
| O=S(=O)(c1ccc(O[C@H]2C[C@H](O)C2)c2c1[C@H](O)C(F)(F)C2)C(F)(F)F [Compound 644] | 6.00 to 6.60 |
| FC(F)COc1ccc(C(F)(F)F)c2c1C[C@H](F)[C@H]2F [Compound 697] | 6.60 to 7.30 |
| CS(=O)(=O)c1ccc(O[C@H]2C[C@H](C#N)C2)c2c1[C@H](O)C(F)(F)[C@@H]2F [Compound 760] | > 7.30 |

Test system: VEGF concentration in culture medium of 786-O cells
Test: VEGF ELISA Assay
Format: cell-based
Conditions: Homo sapiens, 786-0
Protocol: Each concentration was plated in duplicate. About 20 hours later, medium was removed by suction and each well was supplied with 180 μL of growth medium. About 20 µl freshly-made 10× compound stocks were added to each well. […] The EC50 was calculated by GraphPad Prism using the dose-response-inhibition (four parameter) equation. The cell-seeded plate was then subjected to CellTiter-Glo luminescence cell viability assay (Promega) by adding 50 μL of Celltiter Glo reagent into each well and shaking the plate for 8 minutes at 550 rpm (Thermomixer R, Eppendorf) then the luminescence signal immediately read in a plate reader (3 second delay, 0.5 second/well integration time, Synergy 2 multi Detection Microplate reader).

| Compound | pEC50 |
| --- | --- |
| O=S(=O)(c1ccc(Oc2cc(F)cc(Cl)c2)c2c1[C@H](O)CC2)C(F)F [Compound 1] | 6.00 to 6.60 |
| O=S(=O)(c1ccc(Oc2cc(F)cc(Cl)c2)c2c1C(O)CC2)C(F)F (stereo not shown) [Compound 17] | 6.60 to 7.30 |
| O=S(=O)(c1ccc(Oc2cc(F)cc(Cl)c2)c(Cl)c1CO)C(F)F [Compound 41] | 6.00 to 6.60 |
| N#Cc1ccc(Oc2cc(F)cc(F)c2)c2c1[C@H](O)C(F)(F)C2 [Compound 67] | 6.60 to 7.30 |
| N#Cc1cc(F)cc(Oc2ccc(S(=O)(=O)C(F)F)c3c2CCC3O)c1 (stereo not shown) [Compound 78] | 6.00 to 6.60 |
| O=S(=O)(c1ccc(Oc2cc(F)cc(Cl)c2)c(C(F)F)c1)C(F)(F)F [Compound 124] | 6.00 to 6.60 |
| N#Cc1cc(F)cc(Oc2ccc(S(=O)(=O)C(F)F)c3c2CC[C@H]3O)c1 [Compound 155] | 6.60 to 7.30 |
| CS(=O)(=O)c1ccc(Oc2cc(Cl)cc(C#N)c2)c2c1[C@H](O)C(F)(F)C2 [Compound 234] | 6.60 to 7.30 |
| CS(=O)(=O)c1ccc(OC2CC(C#N)C2)c2c1[C@H](O)C(F)(F)[C@@H]2F (stereo partly shown) [Compound 760] | 6.60 to 7.30 |

Test system: 786-O-Hif-Luc cells (luciferase gene driven by multiple HIF responsive elements)
Test: Luciferase Assay (HIF reporter)
Conditions: 24 h, read-out: Mean Luciferase EC50 (nM)
Protocol: A pool of infected cells were then selected against 2 μg/mL of puromycin (P8833, Sigma) for 10 days followed by limited dilution to select single clones.
Each concentration was tested in triplicate. After about 24 hours, luciferase activity was determined using ONE-Glo Luciferase Assay Reagent (E6110, Promega) following the manufacturer's recommended procedure. EC50 were calculated using Dotmatics software.

| Compound | EC50 [nM] |
| --- | --- |
| C[C@H]1C[C@@H](O)c2c(S(=O)(=O)C(F)F)ccc(Oc3cc(F)cc(Cl)c3)c21 [Compound 7a] | 250 to 1000 |
| O=S(=O)(c1ccc(Oc2cc(F)cc(Cl)c2)c(Cl)c1CO)C(F)F [Compound 41] | 250 to 1000 |
| N#Cc1cc(F)cc(Oc2ccc(S(=O)(=O)C(F)(F)F)c3c2CC[C@H]3O)c1 [Compound 57] | 50 to 249 |
| O=S(=O)(c1ccc(Oc2cc(F)cc(Cl)c2)c(C(F)F)c1)C(F)(F)F [Compound 124] | 250 to 1000 |
| N#Cc1cc(F)cc(Oc2ccc(S(=O)(=O)C(F)F)c3c2CC[C@H]3O)c1 [Compound 155] | 50 to 249 |
| N#Cc1cccc(Oc2ccc(S(=O)(=O)C(F)F)c3c2CC[C@H]3O)c1 [Compound 156] | 250 to 1000 |
| CS(=O)(=O)c1ccc(Oc2cc(F)cc(C#N)c2)c2c1[C@H](O)C(F)(F)C2 [Compound 163, (S)-3-((2,2-Difluoro-1-hydroxy-7-(methylsulfonyl)-2,3-dihydro-1H-inden-4-yl)oxy)-5-fluorobenzonitrile] | < 50 |
| CS(=O)(=O)c1ccc(Oc2cc(F)cc(C#N)c2)c2c1[C@H](N)C(F)(F)C2 [Compound 165] | 50 to 249 |
| N#Cc1cc(Cl)cc(Oc2ccc(S(=O)(=O)CF)c3c2CC(F)(F)[C@H]3O)c1 [Compound 167] | < 50 |
| CCS(=O)(=O)c1ccc(Oc2cc(F)cc(C#N)c2)c2c1[C@H](O)C(F)(F)C2 [Compound 206] | 50 to 249 |
| CS(=O)(=O)c1ccc(Oc2cc(F)cc(C#N)c2)c2c1C(O)C(F)(F)C2 (stereo not shown) [Compound 223] | 50 to 249 |
| CS(=O)(=O)c1ccc(Oc2cc(F)cc(C#N)c2)c2c1[C@@H](O)C(F)(F)C2 [Compound 226] | > 1000 |
| [2H]C([2H])([2H])S(=O)(=O)c1ccc(Oc2cc(F)cc(C#N)c2)c2c1[C@]([2H])(O)C(F)(F)C2 [Compound 229] | < 50 |
| CS(=O)(=O)c1ccc(Oc2cc(F)cc(C#N)c2)c2c1[C@H](O)[C@H](F)C2 [Compound 231] | < 50 |
| CS(=O)(=O)c1ccc(Oc2cc(F)cc(C#N)c2)c2c1C(O)C(F)C2 (stereo not shown) [Compound 232] | < 50 |
| CS(=O)(=O)c1ccc(Oc2cc(Cl)cc(C#N)c2)c2c1[C@H](O)C(F)(F)C2 [Compound 234] | < 50 |
| N#Cc1cncc(Oc2ccc(S(=O)(=O)C(F)(F)F)c3c2CC(F)(F)[C@H]3O)c1 [Compound 235] | < 50 |
| [2H][C@]1(O)c2c(S(C)(=O)=O)ccc(Oc3cc(F)cc(C#N)c3)c2CC1(F)F [Compound 247] | < 50 |
| CNS(=O)(=O)c1ccc(Oc2cc(F)cc(F)c2)c2c1[C@H](O)C(F)(F)C2 [Compound 251] | 50 to 249 |
| N#Cc1cc(F)cc(Oc2ccc(S(N)(=O)=O)c3c2CC(F)(F)[C@H]3O)c1 [Compound 252] | 50 to 249 |
| CNS(=O)(=O)c1ccc(Oc2cc(F)cc(C#N)c2)c2c1[C@H](O)C(F)(F)C2 [Compound 254] | 50 to 249 |
| NS(=O)(=O)c1ccc(Oc2cc(F)cc(F)c2)c2c1[C@H](O)C(F)(F)C2 [Compound 256] | < 50 |
| CS(=O)(=O)c1ccc(Oc2cc(F)cc(C#N)c2)c2c1[C@H](O)[C@@H](F)C2 [Compound 271] | 250 to 1000 |
| CS(=O)(=O)c1ccc(Oc2cc(F)cc(C#N)c2)c2c1[C@H](O)[C@H](F)[C@@H]2F [Compound 289, 3-[(1S,2S,3R)-2,3-difluoro-1-hydroxy-7-methylsulfonyl-indan-4-yl]oxy-5-fluoro-benzonitrile] | < 50 |
| N#Cc1cc(F)cc(Oc2ccc(S(=O)(=O)C(F)(F)F)c3c2CC(F)(F)[C@H]3N)c1 [Compound 290] | 50 to 249 |
| N#Cc1cc(F)cc(Oc2ccc(S(N)(=O)=O)c3c2[C@@H](F)C(F)(F)[C@H]3O)c1 [Compound 338] | < 50 |
| N#Cc1cc(F)cc(Oc2ccc(S(N)(=O)=O)c3c2[C@H](F)C(F)(F)[C@H]3O)c1 [Compound 339] | 250 to 1000 |

Same assay, conditions: 24 h, read-out: Mean Luciferase EC50 (nM), 786-O-Hif-Luc cells, about 24 hours

| Compound | EC50 [nM] |
| --- | --- |
| O=S(=O)(c1ccc(O[C@H]2C[C@H](O)C2)c2c1[C@H](O)C(F)(F)C2)C(F)(F)F [Compound 644] | 250 to 1000 |
| FC(F)COc1ccc(C(F)(F)F)c2c1C[C@H](F)[C@H]2F [Compound 697] | 50 to 249 |
| CS(=O)(=O)c1ccc(OC2CC(C#N)C2)c2c1[C@H](O)C(F)(F)[C@@H]2F (stereo partly shown) [Compound 760] | 50 to 249 |
